“And” between values parts separate entries of the source, which are not always exact repeats. Identical values can stand only once.
Assays:
[1] = Blood pharmacokinetics, one-phase decay model, LNCaP tumor-bearing mice; type: in vivo; details: i.v.
Experimental: The pharmacokinetic analysis of the [^47Sc]Sc-PSMA-D4 was based on the curves of the %ID g^−1 accumulated in the blood. The pharmacokinetic parameters were determined according to a one-phase decay model. The following parameters were used: K (rate constant) and half-life calculated as ln(2)/K.
For blood activity data, a one-phase exponential decay model was used to model the percentage of remaining activity (%ID g^−1) as a time post-injection function.

LNCaP tumor-bearing mice = assay: Ex vivo biodistribution in mice bearing LNCaP tumor
Experimental: An experimental tumor murine model was induced using LNCaP cell, which grew to 80–90% confluence before trypsinization and formulation in Matrixgel™ Basement Membrane Matrix (Bedford, MA, USA) for implantation into mice. The mice were subcutaneously injected in the shoulder with 200 mcL bolus containing a suspension of 10^6 freshly harvested cell line LNCaP in Matrixgel™. This procedure was performed under anaesthesia with 2% isoflurane. The animals were kept under pathogen-free condition, and experiments were performed 2–3 weeks later when a tumor reached a volume of approximately 150 ± 60 mm^3. Then, the animals were randomized into two groups (25 mice per group, five mice per time point): Group 1, treated with a single intravenous injection of [^90Y]Y-PSMA-D4 (0.1 mL, 0.1 mcg, 15.5 MBq, SA 16.7 GBq mg^−1 = 17.2 GBq mcmol^−1) and Group 2, treated with a single intravenous injection of [^47Sc]Sc-PSMA-D4 (0.1 mL, 0.19 mcg, 10 MBq, SA 4.8 GBq mg^−1 = 4.57 GBq mcmol^−1).
At 1, 2, 4, 6, 24, and 48 h after injection, the animals were euthanized by cervical dislocation and dissected. Selected organs and tissues were assayed for their radioactivity and weighted. The physiological distribution was calculated and expressed in terms of the percentage of administrated radioactivity found in each of the selected organs or tissues per gram (%ID g^−1).
Results are provided as mean ± SD. The results of physiological distribution are presented as a percentage of the dose administered per gram of tissue (%ID g^−1) as average value with standard deviation (%ID g^−1; mean ± standard deviation (SD)) with n representing the number of animals per group. Data were statistically analyzed using GraphPad Prism version 8.0.0 for Window.

PSMA antigen = target: T1, PSMA antigen (Homo sapiens, UniProt Q04609); assay: Saturation radioligand binding assay on LNCaP (PSMA positive) and PC3 (PSMA negative) cell membranes
T1 construct: PSMA antigen expressed on LNCaP cell membranes; endogenous in cells; host or cells: LNCaP cell membranes (PC3 membranes as PSMA-negative control)
T1 sequence (Q04609 whole entry): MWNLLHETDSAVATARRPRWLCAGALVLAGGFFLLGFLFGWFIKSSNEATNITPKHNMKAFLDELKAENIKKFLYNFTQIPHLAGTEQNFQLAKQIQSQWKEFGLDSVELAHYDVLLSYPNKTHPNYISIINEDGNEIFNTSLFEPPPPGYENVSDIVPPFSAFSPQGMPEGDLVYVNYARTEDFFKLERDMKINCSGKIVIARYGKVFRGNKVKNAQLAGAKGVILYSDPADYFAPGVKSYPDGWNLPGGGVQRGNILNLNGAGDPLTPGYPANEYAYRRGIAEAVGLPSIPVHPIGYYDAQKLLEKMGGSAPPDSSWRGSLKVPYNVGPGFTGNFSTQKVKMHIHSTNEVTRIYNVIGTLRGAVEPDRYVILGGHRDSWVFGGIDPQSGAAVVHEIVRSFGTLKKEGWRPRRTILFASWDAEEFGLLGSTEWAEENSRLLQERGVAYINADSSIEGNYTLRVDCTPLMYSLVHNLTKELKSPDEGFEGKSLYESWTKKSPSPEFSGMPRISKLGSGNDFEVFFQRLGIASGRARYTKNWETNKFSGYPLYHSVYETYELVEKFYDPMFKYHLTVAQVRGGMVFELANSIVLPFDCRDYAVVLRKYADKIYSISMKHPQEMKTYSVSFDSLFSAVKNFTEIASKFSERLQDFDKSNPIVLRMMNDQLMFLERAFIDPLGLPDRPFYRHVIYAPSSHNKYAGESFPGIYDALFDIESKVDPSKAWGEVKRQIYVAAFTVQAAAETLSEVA
Experimental: The equilibrium constant (KD) was determined by a saturation binding experiment performed in PSMA positive LNCaP and PSMA negative PC3 cell membranes isolated according to the procedure developed by Fichna et al.. The 50 mcL of LNCaP and PC3 cell membranes were seeded on special MultiScreen™ 96 well filter plates (Merck, Warsaw, Poland) and incubated for 2 h with increasing concentration of [^177Lu]Lu-PSMA-D4, [^90Y]Y-PSMA-D4, and […] (0.016–194 nM) at 37 °C. After incubation, the unbound radiocomplexes were filtered under vacuum, and the membranes were washed twice using PBS. The filters containing membranes with the attached radiotracer were extruded into tubes using MultiScreen Multile Punch (Merck). The number of associated inhibitors was determined by measuring the radioactivity of squeezed filters using Wallac Wizard 1470 γ counter. The KD and Bmax were calculated by nonlinear regression using the GraphPad Prism statistic program.

SMILES: O=C([O-])CN1CCN(CC(=O)[O-])CCN(CC(=O)NCC2CCC(C(=O)NC(Cc3c[nH]c4ccccc34)C(=O)NCCCCC(NC(=O)NC(CCC(=O)O)C(=O)O)C(=O)O)CC2)CCN(CC(=O)[O-])CC1.[47Sc+3] (centres unmarked) [[^47Sc]Sc-PSMA-D4]
- blood half-life [1]: 10.4 min and 10.2 min
- T/B (ratio tumor to blood) (LNCaP tumor-bearing mice; 1 h after i.v. injection): 31.6
- T/K (ratio tumor to kidneys) (LNCaP tumor-bearing mice; 1 h after i.v. injection): 1.0
- T/M (ratio tumor to muscle) (LNCaP tumor-bearing mice; 1 h after i.v. injection): 135.2
- blood (LNCaP tumor-bearing mice; 1 h after i.v. injection): 0.29 ± 0.08 %ID g^−1
- kidneys (LNCaP tumor-bearing mice; 1 h after i.v. injection): 9.46 ± 1.44 %ID g^−1
- large intestine (LNCaP tumor-bearing mice; 1 h after i.v. injection): 0.09 ± 0.03 %ID g^−1
- liver (LNCaP tumor-bearing mice; 1 h after i.v. injection): 0.13 ± 0.02 %ID g^−1
- muscle (LNCaP tumor-bearing mice; 1 h after i.v. injection): 0.10 ± 0.06 %ID g^−1
- small intestine (LNCaP tumor-bearing mice; 1 h after i.v. injection): 0.35 ± 0.19 %ID g^−1
- spleen (LNCaP tumor-bearing mice; 1 h after i.v. injection): 0.52 ± 0.19 %ID g^−1
- stomach (LNCaP tumor-bearing mice; 1 h after i.v. injection): 0.23 ± 0.09 %ID g^−1
- tumor (LNCaP tumor-bearing mice; 1 h after i.v. injection): 9.24 ± 5.13 %ID g^−1
- urine (LNCaP tumor-bearing mice; 1 h after i.v. injection): 89.23 ± 2.63 %ID
- T/B (ratio tumor to blood) (LNCaP tumor-bearing mice; 4 h after i.v. injection): 120.9
- T/K (ratio tumor to kidneys) (LNCaP tumor-bearing mice; 4 h after i.v. injection): 4.3
- T/M (ratio tumor to muscle) (LNCaP tumor-bearing mice; 4 h after i.v. injection): 24.3
- blood (LNCaP tumor-bearing mice; 4 h after i.v. injection): 0.08 ± 0.04 %ID g^−1
- kidneys (LNCaP tumor-bearing mice; 4 h after i.v. injection): 2.16 ± 0.86 %ID g^−1
- large intestine (LNCaP tumor-bearing mice; 4 h after i.v. injection): 0.70 ± 0.48 %ID g^−1
- liver (LNCaP tumor-bearing mice; 4 h after i.v. injection): 0.08 ± 0.04 %ID g^−1
- muscle (LNCaP tumor-bearing mice; 4 h after i.v. injection): 0.39 ± 0.17 %ID g^−1
- small intestine (LNCaP tumor-bearing mice; 4 h after i.v. injection): 0.41 ± 0.30 %ID g^−1
- spleen (LNCaP tumor-bearing mice; 4 h after i.v. injection): 0.57 ± 0.31 %ID g^−1
- stomach (LNCaP tumor-bearing mice; 4 h after i.v. injection): 0.39 ± 0.17 %ID g^−1
- tumor (LNCaP tumor-bearing mice; 4 h after i.v. injection): 9.22 ± 2.21 %ID g^−1
- urine (LNCaP tumor-bearing mice; 4 h after i.v. injection): 93.42 ± 2.07 %ID
- T/B (ratio tumor to blood) (LNCaP tumor-bearing mice; 6 h after i.v. injection): 207.6
- T/K (ratio tumor to kidneys) (LNCaP tumor-bearing mice; 6 h after i.v. injection): 6.1
- T/M (ratio tumor to muscle) (LNCaP tumor-bearing mice; 6 h after i.v. injection): 251.0
- blood (LNCaP tumor-bearing mice; 6 h after i.v. injection): 0.04 ± 0.01 %ID g^−1
- kidneys (LNCaP tumor-bearing mice; 6 h after i.v. injection): 1.42 ± 0.28 %ID g^−1
- large intestine (LNCaP tumor-bearing mice; 6 h after i.v. injection): 0.69 ± 0.17 %ID g^−1
- liver (LNCaP tumor-bearing mice; 6 h after i.v. injection): 0.06 ± 0.01 %ID g^−1
- muscle (LNCaP tumor-bearing mice; 6 h after i.v. injection): 0.03 ± 0.02 %ID g^−1
- small intestine (LNCaP tumor-bearing mice; 6 h after i.v. injection): 0.11 ± 0.07 %ID g^−1
- spleen (LNCaP tumor-bearing mice; 6 h after i.v. injection): 0.08 ± 0.04 %ID g^−1
- stomach (LNCaP tumor-bearing mice; 6 h after i.v. injection): 0.08 ± 0.09 %ID g^−1
- tumor (LNCaP tumor-bearing mice; 6 h after i.v. injection): 8.65 ± 3.19 %ID g^−1
- urine (LNCaP tumor-bearing mice; 6 h after i.v. injection): 94.89 ± 1.34 %ID
- T/B (ratio tumor to blood) (LNCaP tumor-bearing mice; 24 h after i.v. injection): 467.3
- T/K (ratio tumor to kidneys) (LNCaP tumor-bearing mice; 24 h after i.v. injection): 18.4
- T/M (ratio tumor to muscle) (LNCaP tumor-bearing mice; 24 h after i.v. injection): 229.0
- blood (LNCaP tumor-bearing mice; 24 h after i.v. injection): 0.01 ± 0.01 %ID g^−1
- kidneys (LNCaP tumor-bearing mice; 24 h after i.v. injection): 0.29 ± 0.09 %ID g^−1
- large intestine (LNCaP tumor-bearing mice; 24 h after i.v. injection): 0.12 ± 0.12 %ID g^−1
- liver (LNCaP tumor-bearing mice; 24 h after i.v. injection): 0.03 ± 0.01 %ID g^−1
- muscle (LNCaP tumor-bearing mice; 24 h after i.v. injection): 0.02 ± 0.02 %ID g^−1
- small intestine (LNCaP tumor-bearing mice; 24 h after i.v. injection): 0.34 ± 0.18 %ID g^−1
- spleen (LNCaP tumor-bearing mice; 24 h after i.v. injection): 0.04 ± 0.01 %ID g^−1
- stomach (LNCaP tumor-bearing mice; 24 h after i.v. injection): 0.05 ± 0.06 %ID g^−1
- tumor (LNCaP tumor-bearing mice; 24 h after i.v. injection): 5.28 ± 3.01 %ID g^−1
- urine (LNCaP tumor-bearing mice; 24 h after i.v. injection): 97.89 ± 1.22 %ID
- T/B (ratio tumor to blood) (LNCaP tumor-bearing mice; 48 h after i.v. injection): 78.8
- T/K (ratio tumor to kidneys) (LNCaP tumor-bearing mice; 48 h after i.v. injection): 16.0
- T/M (ratio tumor to muscle) (LNCaP tumor-bearing mice; 48 h after i.v. injection): 66.7
- blood (LNCaP tumor-bearing mice; 48 h after i.v. injection): 0.05 ± 0.03 %ID g^−1
- kidneys (LNCaP tumor-bearing mice; 48 h after i.v. injection): 0.26 ± 0.14 %ID g^−1
- large intestine (LNCaP tumor-bearing mice; 48 h after i.v. injection): 1.63 ± 0.31 %ID g^−1
- liver (LNCaP tumor-bearing mice; 48 h after i.v. injection): 0.04 ± 0.01 %ID g^−1
- muscle (LNCaP tumor-bearing mice; 48 h after i.v. injection): 0.06 ± 0.06 %ID g^−1
- small intestine (LNCaP tumor-bearing mice; 48 h after i.v. injection): 0.45 ± 0.13 %ID g^−1
- spleen (LNCaP tumor-bearing mice; 48 h after i.v. injection): 0.10 ± 0.09 %ID g^−1
- stomach (LNCaP tumor-bearing mice; 48 h after i.v. injection): 0.03 ± 0.04 %ID g^−1
- tumor (LNCaP tumor-bearing mice; 48 h after i.v. injection): 4.11 ± 1.08 %ID g^−1
- urine (LNCaP tumor-bearing mice; 48 h after i.v. injection): 95.37 ± 1.89 %ID
- Kd (PSMA antigen; LNCaP cell membranes, 2 h, 37 °C): 3.4 ± 2 nM
- Specific Binding (PSMA antigen; total binding on LNCaP minus non-specific binding on PC3 membranes): 98.8 ± 0.9%

From PMC7962978, “PSMA-D4 Radioligand for Targeted Therapy of Prostate Cancer: Synthesis, Characteristics and Preliminary Assessment of Biological Properties” (International Journal of Molecular Sciences, 2021)
